How the values were obtained:
[1] = tested on: T1, FKBP12^F36V-p53 (Homo sapiens, F37V); test: Immunoblot analysis of FKBP12^F36V-p53 acetylation in H1299 cells; type: cell-based
T1 construct: expressed in transfected cells
Experimental: Lentivirus Production and Transduction: Lentiviral production was performed using HEK293T cells, which were co-transfected with pMD2.G (Addgene, #12259), psPAX2 (Addgene, #12260), and AceTAG lentiviral plasmids using PEI (Polysciences Inc). Viral particles were collected 72 h after transfection and filtered through a […] membrane. A range of dilutions of the lentivirus in DMEM complete and 10 μg/mL polybrene were added to HeLa, H1299, or HeLa RelA KO cell lines. Transduced cells were selected with 1 μg/mL or 2 μg/mL puromycin.
Immunoblotting: Cells were harvested in cold DPBS by scraping and washed with cold DPBS twice. Cell pellets were resuspended in DPBS supplemented with 5 mM sodium butyrate, 20 mM Nicotinamide, and 1X Halt Protease Inhibitor Cocktail and lysed by sonication (15 ms on, 40 ms off, 15% amplitude, 1s total on x 3). Protein concentration was determined using DC Protein Assay (Bio-Rad) and absorbance read using a CLARIOstar plate reader following manufacturer's instructions. Samples with equal protein content were boiled in 4X SDS gel loading buffer for 10 min. Proteins were separated by 10%, 12.5%, or 15% SDS-polyacrylamide gel electrophoresis and transferred to PVDF membranes using Trans-Blot Turbo RTA Mini […] LF PVDF Transfer Kit (Bio-Rad). Membranes were incubated for 1 h at room temperature with blocking buffer, followed by incubating overnight at 4° C. with primary antibodies. After washing in TBST, the secondary antibodies were incubated with the membranes at room temperature for 1 h. The membranes were washed with TBST for three times and visualized on a Bio-Rad ChemiDoc MP Imaging System with Clarity Max Western ECL substrate (Bio-Rad) or SuperSignal West Femto Chemiluminescent substrate proprietary luminol and peroxide solution kit (Thermo Scientific Pierce).

[2] = tested on: p21; test: qPCR analysis of p21 mRNA level in FKBP12^F36V-p53 H1299 cells; type: cell-based, Human; details: indicated doses, 8 hr, FIG. 7C
[3] = tested on: TP53 target genes; test: RNA-seq analysis of FKBP12^F36V-p53 H1299 cells; type: cell-based, Human
[4] = tested on: p21 promoter; test: ChIP-qPCR of FKBP12^F36V-p53 binding to p21 promoter; type: cell-based, Human; details: AceTAG-1 treatment vs DMSO, FIG. 7G
Excerpt: The p53/p21 ^CIP/WAF1 pathway is one of the most well-studied pathways related to p53 acetylation ^[8a, 14]. It has been reported that acetylation of p53 at lysine 373 and 382 play an important in activating transcription and translation of the p21^CIP/WAF1 gene^[15], which inhibits cell cycle progression during G1 and G2 phases ^[16]. However, it is still unknown whether these are the only two sites necessary for activation of downstream pathway. Moreover, the molecular mechanism as to how AceTAG-1 mediates p21 induction is currently uncertain as there are multiple hypotheses of how p53 acetylation affects transcriptional activity. […] We first tested whether AceTAG-mediated p53 acetylation increases its DNA binding to p21 promoter by ChIP-qPCR. The cells were incubated with AceTAG-1 and FKBP12^F36V-HA-p53 was immunoprecipitated, where DNA binding to the protein was purified for qPCR analysis. Among five p21 DNA sequences, binding of FKBP12^F36V-p53 to four previously reported p53 binding sites on p21 promoter (Mujtaba et al., Molecular Cell 13, 251-263, 2004) were increased with AceTAG-1 treatment.

[5] = 3 μM AceTAG-1 compared to vehicle, FIG. 7F

T1 sequence (P62942 2-108 F37V limits assumed): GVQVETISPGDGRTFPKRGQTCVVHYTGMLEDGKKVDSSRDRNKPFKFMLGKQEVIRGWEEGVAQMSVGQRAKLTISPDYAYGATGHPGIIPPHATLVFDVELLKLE
T1 sequence (Q09472 2-2414 limits assumed, stated change not applied, further chain): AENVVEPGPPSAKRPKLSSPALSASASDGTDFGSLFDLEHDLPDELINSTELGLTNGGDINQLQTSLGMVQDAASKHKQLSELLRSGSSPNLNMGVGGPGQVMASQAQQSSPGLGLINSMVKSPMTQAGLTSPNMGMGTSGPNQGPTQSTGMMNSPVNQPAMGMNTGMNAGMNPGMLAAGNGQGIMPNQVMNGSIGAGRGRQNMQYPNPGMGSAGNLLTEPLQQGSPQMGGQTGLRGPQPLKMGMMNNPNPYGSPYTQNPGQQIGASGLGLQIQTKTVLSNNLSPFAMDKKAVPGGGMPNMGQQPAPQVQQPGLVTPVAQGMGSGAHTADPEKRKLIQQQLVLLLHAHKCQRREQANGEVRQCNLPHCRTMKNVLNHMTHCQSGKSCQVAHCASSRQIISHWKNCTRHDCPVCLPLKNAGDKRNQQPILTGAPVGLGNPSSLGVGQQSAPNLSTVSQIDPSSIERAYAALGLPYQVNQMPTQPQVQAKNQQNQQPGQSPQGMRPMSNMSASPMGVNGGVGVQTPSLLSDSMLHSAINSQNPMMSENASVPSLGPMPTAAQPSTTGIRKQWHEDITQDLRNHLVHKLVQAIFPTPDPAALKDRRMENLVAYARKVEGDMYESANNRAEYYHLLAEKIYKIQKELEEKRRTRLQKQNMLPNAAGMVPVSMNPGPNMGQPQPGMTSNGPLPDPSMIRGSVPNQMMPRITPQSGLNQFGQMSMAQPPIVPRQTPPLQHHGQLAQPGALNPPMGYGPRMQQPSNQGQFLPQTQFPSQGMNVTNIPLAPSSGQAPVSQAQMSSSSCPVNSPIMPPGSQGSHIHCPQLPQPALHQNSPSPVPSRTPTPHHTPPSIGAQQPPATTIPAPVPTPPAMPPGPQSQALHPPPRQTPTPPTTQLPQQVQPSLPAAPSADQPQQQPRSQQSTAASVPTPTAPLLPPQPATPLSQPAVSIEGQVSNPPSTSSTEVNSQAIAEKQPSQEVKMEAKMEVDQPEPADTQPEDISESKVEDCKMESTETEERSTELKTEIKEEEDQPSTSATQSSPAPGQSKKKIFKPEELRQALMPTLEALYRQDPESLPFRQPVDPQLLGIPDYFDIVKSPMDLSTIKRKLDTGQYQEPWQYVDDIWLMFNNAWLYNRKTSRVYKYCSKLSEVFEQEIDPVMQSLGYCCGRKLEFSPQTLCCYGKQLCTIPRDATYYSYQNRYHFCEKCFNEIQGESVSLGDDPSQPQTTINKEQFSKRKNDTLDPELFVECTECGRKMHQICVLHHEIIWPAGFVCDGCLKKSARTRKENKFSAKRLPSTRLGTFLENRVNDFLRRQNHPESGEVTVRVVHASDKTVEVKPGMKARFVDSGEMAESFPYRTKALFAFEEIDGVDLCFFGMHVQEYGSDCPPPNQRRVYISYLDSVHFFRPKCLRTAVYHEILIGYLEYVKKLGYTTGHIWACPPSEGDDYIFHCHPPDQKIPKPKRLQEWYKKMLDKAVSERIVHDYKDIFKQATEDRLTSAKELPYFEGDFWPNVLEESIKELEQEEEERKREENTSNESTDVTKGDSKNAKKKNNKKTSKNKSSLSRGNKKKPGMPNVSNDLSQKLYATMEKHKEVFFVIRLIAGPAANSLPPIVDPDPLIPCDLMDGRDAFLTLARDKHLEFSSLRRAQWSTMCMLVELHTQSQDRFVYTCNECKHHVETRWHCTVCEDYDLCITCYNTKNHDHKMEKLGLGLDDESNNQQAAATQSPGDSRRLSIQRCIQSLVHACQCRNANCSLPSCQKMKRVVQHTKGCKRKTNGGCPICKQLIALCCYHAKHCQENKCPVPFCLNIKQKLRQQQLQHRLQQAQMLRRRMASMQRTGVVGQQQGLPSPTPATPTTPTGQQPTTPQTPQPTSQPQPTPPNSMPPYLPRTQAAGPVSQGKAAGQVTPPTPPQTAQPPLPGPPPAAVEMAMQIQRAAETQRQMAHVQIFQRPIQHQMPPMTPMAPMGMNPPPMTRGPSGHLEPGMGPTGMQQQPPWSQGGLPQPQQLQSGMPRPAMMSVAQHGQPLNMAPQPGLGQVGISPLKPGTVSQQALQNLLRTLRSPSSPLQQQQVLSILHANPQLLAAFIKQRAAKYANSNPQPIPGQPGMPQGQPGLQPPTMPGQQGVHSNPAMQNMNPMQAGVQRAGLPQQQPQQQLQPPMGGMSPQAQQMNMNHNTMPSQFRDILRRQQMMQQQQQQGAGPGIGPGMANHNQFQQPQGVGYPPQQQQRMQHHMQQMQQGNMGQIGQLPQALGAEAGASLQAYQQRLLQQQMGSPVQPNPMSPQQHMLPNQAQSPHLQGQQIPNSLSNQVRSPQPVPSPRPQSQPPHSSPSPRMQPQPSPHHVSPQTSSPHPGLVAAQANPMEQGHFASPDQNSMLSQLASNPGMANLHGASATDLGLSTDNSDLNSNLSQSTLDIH

CC[C@H](C(=O)N1CCCC[C@H]1C(=O)O[C@H](CCc1ccc(OC)c(OC)c1)c1cccc(OCC(=O)NCCOCCOCCC(=O)NCCOc2ccc(CCc3nc4cc(-c5c(C)noc5C)ccc4n3CCN3CCOCC3)cc2)c1)c1cc(OC)c(OC)c(OC)c1 [AceTAG-1, (R)-3-(3,4-dimethoxyphenyl)-1-(3-((15-(4-(2-(5-(3,5-dimethylisoxazol-4-yl)-1-(2-morpholinoethyl)-1H-benzo[d]imidazol-2-yl)ethyl)phenoxy)-2,12-dioxo-6,9-dioxa-3,13-diazapentadecyl)oxy)phenyl)propyl (S)-1-((S)-2-(3,4,5-trimethoxyphenyl)butanoyl)piperidine-2-carboxylate]
p53 acetylation at higher AceTAG-1 concentrations ([1]; FIG. 6C): apparent acetylation autoinhibition | treatment time after which a significant level of p53 acetylation is detectable ([1]; FIG. 9E): ~10 min | p53 acetylation at K305, K373, and K382 ([1]; indicated doses, 2 hr, FIG. 6C): strong AceTAG-1-dependent acetylation | transcription of p21 (mRNA, qPCR) [2]: confirmed | increases in apoptotic (Bax, Puma), metabolic (GLS2) or autoregulatory (Mdm2) targets ([3]; 3 μM AceTAG-1, RNA-seq): little to no increases | upregulation of CDKNIA transcript [3, 5]: ~2.8 fold | upregulation of GDF15 transcript [3, 5]: ~3 fold | upregulation of SLC7A11 transcript [3, 5]: ~1.7 fold | upregulation of TP5313 transcript [3, 5]: ~1.6 fold | binding at the non p53 binding sites within the C-terminus of p21 gene [4]: no significant increase | binding of FKBP12^F36V-p53 to four p53 binding sites on p21 promoter [4]: increased
